# Results reported in patent publication US12398107B2, “Fungicidal nitroanilino substituted pyrazoles” (FMC Corporation, priority 2018, dated 2025).
# Key:
# Type in all cases: in vivo
# [1] = test system: Phakopsora pachyrhizi; test: Test D: Asian soybean rust, preventive spray on soybean seedlings; conditions: 50 ppm, 100 = 100% disease control, 0 = no control; for pest or weed control at 50 ppm: Phakopsora pachyrhizi, read-out: Test D disease control rating (Asian soybean rust)
# Method in brief: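 Soybean seedlings sprayed to run-off with compound suspension (ppm, in 50/50 acetone/water with 250 ppm PEG400), inoculated next day with P. pachyrhizi spores, held 24 h saturated at 22°C then 8 days at 22°C. Visual rating 0-100% disease control relative to controls.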
# [2] = test system: Puccinia recondita f. sp. tritici; test: Test B: wheat leaf rust, preventive spray on wheat seedlings; conditions: 50 ppm, 100 = 100% disease control, 0 = no control relative to controls; for pest or weed control at 50 ppm: read-out: Test B disease control rating (wheat leaf rust)
# Method in brief: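 Wheat seedlings got a run-off spray (ppm, acetone/water 50/50, 250 ppm PEG400) and one day later a spore inoculum. After 24 h at 20° C. in saturated air and 7 days at 20° C., disease was scored as % control relative to controls (100 = full control).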
# [3] = test system: Blumeria graminis f. sp. tritici; test: Test C: wheat powdery mildew, preventive spray on wheat seedlings; conditions: 50 ppm, rated after 8 days, 100 = 100% disease control, 0 = no control; for pest or weed control at 50 ppm: Blumeria graminis, 192 h, read-out: Test C disease control rating (wheat powdery mildew)
# Method in brief: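 Wheat seedlings got a run-off spray of test suspension (ppm in acetone/water 50/50, 250 ppm PEG400, acetone 3% of volume), then spore-dust inoculation with wheat powdery mildew one day later. After 8 days' growth-chamber incubation at 20° C, disease control scored visually on a 0–100 scale versus untreated controls.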
# [4] = test system: Septoria tritici; test: Test A: wheat leaf blotch, preventive spray on wheat seedlings; conditions: 50 ppm, 100 = 100% disease control, 0 = no control relative to controls; for pest or weed control at 50 ppm: Zymoseptoria tritici, read-out: Test A disease control rating (wheat leaf blotch)
# Method in brief: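 Preventive test: seedlings sprayed to run-off one day before Septoria tritici spore inoculation, with ppm doses in acetone/water containing 250 ppm PEG400. After 48 h at 24 °C in saturated air and 17 days at 20 °C, plants were scored 0–100 for disease control versus untreated controls.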
# [5] = test system: Botrytis cinerea; test: Test E: tomato Botrytis, preventive spray on tomato seedlings; conditions: 50 ppm, 100 = 100% disease control, 0 = no control; for pest or weed control at 50 ppm: Botrytis cinerea, read-out: Test E disease control rating (tomato Botrytis)
# Method in brief: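 Preventive test: spore inoculation one day after run-off spraying of compound suspension (3% acetone, acetone/water 50/50, 250 ppm PEG400). Incubation 20 °C saturated humidity for 48 h, followed by 3 days at 24 °C growth chamber; disease control scored visually, 100 = full control.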
# [6] = test system: Alternaria solani; test: Test F: tomato early blight, preventive spray on tomato seedlings; conditions: 50 ppm, 100 = 100% disease control, 0 = no control; for pest or weed control at 50 ppm: Alternaria solani, read-out: Test F disease control rating (tomato early blight)
# Method in brief: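 Preventive test: one day after seedlings were sprayed to run-off with ppm-level suspensions (acetone/water 50/50, 250 ppm PEG400), A. solani spore inoculation followed. Incubation was 48 h at 27° C in saturated air plus 3 days at 20° C; disease control was scored visually versus controls (100 = full control).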
structure (smiles),measurement,setting,value
COc1ccc(-c2c(C)nn(C)c2Nc2c(F)cc(F)cc2[N+](=O)[O-])c(Cl)c1 [Compound 64],Test D disease control rating (Asian soybean rust),[1],97%
same,Test B disease control rating (wheat leaf rust),[2],100%
same,Test C disease control rating (wheat powdery mildew),[3],98%
same,Test A disease control rating (wheat leaf blotch),[4],100%
same,Test E disease control rating (tomato Botrytis),[5],98%
same,Test F disease control rating (tomato early blight),[6],99%
Cc1nn(C)c(Nc2c(F)cccc2[N+](=O)[O-])c1-c1c(F)cccc1F [Compound 63],Test D disease control rating (Asian soybean rust),[1],0%
same,Test B disease control rating (wheat leaf rust),[2],99%
same,Test C disease control rating (wheat powdery mildew),[3],86%
same,Test A disease control rating (wheat leaf blotch),[4],100%
same,Test E disease control rating (tomato Botrytis),[5],100%
same,Test F disease control rating (tomato early blight),[6],96%
Cc1nn(C)c(Nc2ccc(F)cc2[N+](=O)[O-])c1-c1ccc(F)cc1Br [Compound 20],Test D disease control rating (Asian soybean rust),[1],0%
same,Test B disease control rating (wheat leaf rust),[2],89%
same,Test C disease control rating (wheat powdery mildew),[3],92%
same,Test A disease control rating (wheat leaf blotch),[4],100%
same,Test E disease control rating (tomato Botrytis),[5],99%
same,Test F disease control rating (tomato early blight),[6],26%
Cc1cccc([N+](=O)[O-])c1Nc1c(-c2c(F)cc(F)cc2Cl)c(C)nn1C [Compound 153],Test D disease control rating (Asian soybean rust),[1],73%
same,Test B disease control rating (wheat leaf rust),[2],100%
same,Test C disease control rating (wheat powdery mildew),[3],99%
same,Test A disease control rating (wheat leaf blotch),[4],99%
same,Test E disease control rating (tomato Botrytis),[5],99%
same,Test F disease control rating (tomato early blight),[6],72%
"COc1cc(F)c(Nc2c(-c3ccc(F)cc3F)c(C)nn2C)c([N+](=O)[O-])c1 [Compound 57, 4-(2,4-difluorophenyl)-N-(2-fluoro-4-methoxy-6-nitrophenyl)-1,3-dimethyl-1H-pyrazol-5-amine]",pest or weed control at 50 ppm,[1],96%
same,pest or weed control at 50 ppm,[2],100%
same,pest or weed control at 50 ppm,[3],100%
same,pest or weed control at 50 ppm,[4],100%
same,pest or weed control at 50 ppm,[5],100%
same,pest or weed control at 50 ppm,[6],100%
Cc1ccc(Nc2c(-c3ccc(F)cc3Cl)c(C)nn2C)c([N+](=O)[O-])c1 [Compound 26],Test D disease control rating (Asian soybean rust),[1],77%
same,Test B disease control rating (wheat leaf rust),[2],99%
same,Test C disease control rating (wheat powdery mildew),[3],94%
same,Test A disease control rating (wheat leaf blotch),[4],100%
same,Test E disease control rating (tomato Botrytis),[5],100%
same,Test F disease control rating (tomato early blight),[6],68%
COc1cc(F)c(-c2c(C)nn(C)c2Nc2c(C)cccc2[N+](=O)[O-])c(F)c1 [Compound 162],Test D disease control rating (Asian soybean rust),[1],77%
same,Test B disease control rating (wheat leaf rust),[2],100%
same,Test C disease control rating (wheat powdery mildew),[3],99%
same,Test A disease control rating (wheat leaf blotch),[4],100%
same,Test E disease control rating (tomato Botrytis),[5],97%
same,Test F disease control rating (tomato early blight),[6],98%
Cc1nn(C)c(Nc2c(F)cc(F)cc2[N+](=O)[O-])c1-c1ccc(F)cc1Br [Compound 51],Test D disease control rating (Asian soybean rust),[1],79%
same,Test B disease control rating (wheat leaf rust),[2],100%
same,Test C disease control rating (wheat powdery mildew),[3],100%
same,Test A disease control rating (wheat leaf blotch),[4],100%
same,Test E disease control rating (tomato Botrytis),[5],98%
same,Test F disease control rating (tomato early blight),[6],99%
Cc1cc(Cl)c(Nc2c(-c3ccc(F)cc3F)c(C)nn2C)c([N+](=O)[O-])c1 [Compound 15],Test D disease control rating (Asian soybean rust),[1],61%
same,Test B disease control rating (wheat leaf rust),[2],100%
same,Test C disease control rating (wheat powdery mildew),[3],98%
same,Test A disease control rating (wheat leaf blotch),[4],100%
same,Test E disease control rating (tomato Botrytis),[5],99%
same,Test F disease control rating (tomato early blight),[6],53%
Cc1nn(C)c(Nc2c(Cl)cc(Br)cc2[N+](=O)[O-])c1-c1ccc(F)cc1F [Compound 55],Test D disease control rating (Asian soybean rust),[1],0%
same,Test B disease control rating (wheat leaf rust),[2],99%
same,Test C disease control rating (wheat powdery mildew),[3],90%
same,Test A disease control rating (wheat leaf blotch),[4],100%
same,Test E disease control rating (tomato Botrytis),[5],34%
same,Test F disease control rating (tomato early blight),[6],0%
"COc1cc(F)c(Nc2c(-c3c(F)cccc3Cl)c(C)nn2C)c([N+](=O)[O-])c1 [Compound 23, 4-(2-chloro-6-fluorophenyl)-N-(2-fluoro-4-methoxy-6-nitrophenyl)-1,3-dimethyl-1H-pyrazol-5-amine]",pest or weed control at 50 ppm,[1],99%
same,pest or weed control at 50 ppm,[2],100%
same,pest or weed control at 50 ppm,[3],100%
same,pest or weed control at 50 ppm,[4],100%
same,pest or weed control at 50 ppm,[5],97%
same,pest or weed control at 50 ppm,[6],99%
COc1cc(F)c(Nc2c(-c3ccc(C#N)cc3Cl)c(C)nn2C)c([N+](=O)[O-])c1 [Compound 166],Test D disease control rating (Asian soybean rust),[1],98%
same,Test B disease control rating (wheat leaf rust),[2],100%
same,Test C disease control rating (wheat powdery mildew),[3],98%
same,Test A disease control rating (wheat leaf blotch),[4],99%
same,Test E disease control rating (tomato Botrytis),[5],99%
same,Test F disease control rating (tomato early blight),[6],100%
CCc1nn(C)c(Nc2ccc(OC)cc2[N+](=O)[O-])c1-c1ccc(F)cc1F [Compound 45],Test D disease control rating (Asian soybean rust),[1],0%
same,Test B disease control rating (wheat leaf rust),[2],86%
same,Test C disease control rating (wheat powdery mildew),[3],95%
same,Test A disease control rating (wheat leaf blotch),[4],100%
same,Test E disease control rating (tomato Botrytis),[5],99%
same,Test F disease control rating (tomato early blight),[6],33%
COc1cc(F)c(-c2c(C)nn(C)c2Nc2c(Cl)cccc2[N+](=O)[O-])c(F)c1 [Compound 160],Test D disease control rating (Asian soybean rust),[1],86%
same,Test B disease control rating (wheat leaf rust),[2],100%
same,Test C disease control rating (wheat powdery mildew),[3],96%
same,Test A disease control rating (wheat leaf blotch),[4],98%
same,Test E disease control rating (tomato Botrytis),[5],100%
same,Test F disease control rating (tomato early blight),[6],99%
CCc1nn(C)c(Nc2c(Cl)cc(Br)cc2[N+](=O)[O-])c1-c1ccc(F)cc1Cl [Compound 128],Test D disease control rating (Asian soybean rust),[1],31%
same,Test B disease control rating (wheat leaf rust),[2],98%
same,Test C disease control rating (wheat powdery mildew),[3],96%
same,Test A disease control rating (wheat leaf blotch),[4],100%
same,Test E disease control rating (tomato Botrytis),[5],99%
same,Test F disease control rating (tomato early blight),[6],33%
C#CCOc1ccc(Nc2c(-c3ccc(F)cc3Cl)c(C)nn2C)c([N+](=O)[O-])c1 [Compound 5],Test D disease control rating (Asian soybean rust),[1],19%
same,Test B disease control rating (wheat leaf rust),[2],86%
same,Test C disease control rating (wheat powdery mildew),[3],76%
same,Test A disease control rating (wheat leaf blotch),[4],97%
same,Test E disease control rating (tomato Botrytis),[5],95%
same,Test F disease control rating (tomato early blight),[6],0%
Cc1nn(C)c(Nc2c(Cl)cccc2[N+](=O)[O-])c1-c1c(F)cc(F)cc1F [Compound 158],Test D disease control rating (Asian soybean rust),[1],87%
same,Test B disease control rating (wheat leaf rust),[2],100%
same,Test C disease control rating (wheat powdery mildew),[3],99%
same,Test A disease control rating (wheat leaf blotch),[4],99%
same,Test E disease control rating (tomato Botrytis),[5],99%
same,Test F disease control rating (tomato early blight),[6],83%
Cc1cc(F)c(Nc2c(-c3ccc(F)cc3Br)c(C)nn2C)c([N+](=O)[O-])c1 [Compound 40],Test D disease control rating (Asian soybean rust),[1],82%
same,Test B disease control rating (wheat leaf rust),[2],100%
same,Test C disease control rating (wheat powdery mildew),[3],100%
same,Test A disease control rating (wheat leaf blotch),[4],100%
same,Test E disease control rating (tomato Botrytis),[5],98%
same,Test F disease control rating (tomato early blight),[6],100%
Cc1cc(Cl)c(Nc2c(-c3ccc(Cl)cc3Cl)c(C)nn2C)c([N+](=O)[O-])c1 [Compound 145],Test D disease control rating (Asian soybean rust),[1],0%
same,Test B disease control rating (wheat leaf rust),[2],92%
same,Test C disease control rating (wheat powdery mildew),[3],52%
same,Test A disease control rating (wheat leaf blotch),[4],98%
same,Test E disease control rating (tomato Botrytis),[5],85%
same,Test F disease control rating (tomato early blight),[6],24%
Cc1nn(C)c(Nc2c(F)cc(Cl)cc2[N+](=O)[O-])c1-c1ccc(F)cc1Br [Compound 131],Test D disease control rating (Asian soybean rust),[1],80%
same,Test B disease control rating (wheat leaf rust),[2],100%
same,Test C disease control rating (wheat powdery mildew),[3],99%
same,Test A disease control rating (wheat leaf blotch),[4],100%
same,Test E disease control rating (tomato Botrytis),[5],99%
same,Test F disease control rating (tomato early blight),[6],100%
